# Results published in paper PMC7996900 (Microorganisms, 2021).
# Biological target: SUMOHis6-GdpX6^GGDEF (GdpX6, PXO_02019) (Xanthomonas oryzae, UniProt A0A0K0GND9)
# Experiment: biochemical
# Sequence of SUMOHis6-GdpX6^GGDEF (GdpX6, PXO_02019) (A0A0K0GND9 318-494 limits assumed): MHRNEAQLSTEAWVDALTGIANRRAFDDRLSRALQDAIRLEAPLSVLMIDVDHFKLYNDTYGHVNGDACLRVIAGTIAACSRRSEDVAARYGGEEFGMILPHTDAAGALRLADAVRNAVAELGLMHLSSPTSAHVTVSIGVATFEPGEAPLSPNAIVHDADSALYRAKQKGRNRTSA
smiles,measurement,value
Nc1nc2c(ncn2[C@@H]2O[C@@H]3CO[P@](=O)(O)O[C@H]4[C@@H](O)[C@H](n5cnc6c(=O)[nH]c(N)nc65)O[C@@H]4CO[P@](=O)(O)O[C@H]3[C@H]2O)c(=O)[nH]1 [c-di-GMP],Kd,9 ± 2.98 µM
